The source made the active and inactive calls. No cut-off for these calls is given here.
Tests used:
[1] = system: Hep 3B2; test: Cytotoxicity against human Hep3B cells assessed as decrease in cell viability after 48 hrs by MTT assay; format: functional, cell-based
[2] = system: HepG2; test: Cytotoxicity against human HepG2 cells assessed as decrease in cell viability after 48 hrs by MTT assay; format: functional, cell-based; conditions: HepG2, 48 h
[3] = system: HepG2; test: Cell cycle arrest in human HepG2 cells assessed as accumulation at S phase at 50 uM after 48 hrs by PI staining based flow cytometry (reference value: 7%); format: functional
[4] = system: HepG2; test: Induction of apoptosis in human HepG2 cells assessed as rounding of cells at 50 uM after 48 hrs by phase contrast microscopy; format: functional, cell-based
[5] = system: HepG2; test: Induction of apoptosis in human HepG2 cells assessed as necrotic cells at 50 uM after 48 hrs by Annexin V-FITC/PI staining based flow cytometry (reference value: 0.62%); format: functional
[6] = system: HepG2; test: Induction of apoptosis in human HepG2 cells assessed as nuclear condensation at 50 uM after 48 hrs by […] staining based fluorescence microscopy; format: functional, cell-based
[7] = system: HepG2; test: Induction of apoptosis in human HepG2 cells assessed as early apoptotic cells at 50 uM after 48 hrs by Annexin V-FITC/PI staining based flow cytometry (reference value: 1.61%); format: functional
[8] = system: HepG2; test: Cell cycle arrest in human HepG2 cells assessed as 2N DNA content at 50 uM after 48 hrs by PI staining based flow cytometry (reference value: 70.6%); format: functional
[9] = system: HepG2; test: Induction of apoptosis in human HepG2 cells assessed as apoptotic bodies at 50 uM after 48 hrs by phase contrast microscopy; format: functional, cell-based
[10] = system: HepG2; test: Induction of apoptosis in human HepG2 cells assessed as viable cells at 50 uM after 48 hrs by Annexin V-FITC/PI staining based flow cytometry (reference value: 95.7%); format: functional; conditions: HepG2, 48 h, read-out: Activity
[11] = system: HepG2; test: Induction of apoptosis in human HepG2 cells assessed as shrinkage of cells at 50 uM after 48 hrs by phase contrast microscopy; format: functional, cell-based
[12] = system: HepG2; test: Induction of intracellular ROS accumulation in human HepG2 cells at 50 uM after 48 hrs by DCFH probe based flow cytometry; format: functional, cell-based
[13] = system: HepG2; test: Cell cycle arrest in human HepG2 cells assessed as 4N DNA content at 50 uM after 48 hrs by PI staining based flow cytometry (reference value: 15.2%); format: functional
[14] = system: HepG2; test: Induction of apoptosis in human HepG2 cells assessed as late apoptotic cells at 50 uM after 48 hrs by Annexin V-FITC/PI staining based flow cytometry (reference value: 2.03%); format: functional
[15] = system: HepG2; test: Cell cycle arrest in human HepG2 cells assessed as >4N DNA content at 50 uM after 48 hrs by PI staining based flow cytometry (reference value: 2.04%); format: functional
[16] = system: HepG2; test: Cell cycle arrest in human HepG2 cells assessed as <2N DNA content at 50 uM after 48 hrs by PI staining based flow cytometry (reference value: 4.18%); format: functional

## COc1cc([C@@H]2Oc3c(OC)cc(/C=C/C=O)cc3[C@H]2CO)ccc1O
[1]
  IC50: 31.5 µM
[2]
  IC50: 38.7 µM

## COc1cc([C@@H]2Oc3c(OC)cc(/C=C/C=O)cc3[C@H]2CO)cc(OC)c1O
[1]
  IC50: 60.7 µM
[2]
  IC50: 104 µM

## COc1cc(C2Oc3c(OC)cc(/C=C/C=O)cc3C2CO)cc(OC)c1O (racemic)
[1]
  IC50: 76.8 µM
[2]
  IC50: 80.5 µM

## COc1cc([C@H]2Oc3c(OC)cc(/C=C/C=O)cc3[C@@H]2CO)cc(OC)c1O
[1]
  IC50: 72.8 µM
[2]
  IC50: 88.7 µM

## COc1cc([C@H]2Oc3c(OC)cc(/C=C/C=O)cc3[C@@H]2CO)ccc1O
[1]
  IC50: 22.4 µM
[2]
  IC50: 38.1 µM

## COc1cc(C2Oc3c(OC)cc(/C=C/CO)cc3C2CO)ccc1O (racemic)
[1]
  IC50: 65.5 µM
[2]
  IC50: 78.6 µM

## COc1cc([C@H]2Oc3c(OC)cc(/C=C/CO)cc3[C@@H]2CO)ccc1O
[1]
  IC50: 52.3 µM
[3]
  Activity: 6.2%
[4]
  Activity: Active
[5]
  Activity: 1.71%
[6]
  Activity: Active
[7]
  Activity: 8.39%
[8]
  Activity: 70.2%
[9]
  Activity: Active
[10]
  viability at 50 µM: 86%
[11]
  Activity: Active
[12]
  Activity: Active
[2]
  IC50: 35.6 µM
[13]
  Activity: 19.1%
[14]
  Activity: 3.87%
[15]
  Activity: 0.6%
[16]
  Activity: 3.86%

## COc1cc([C@@H]2Oc3c(OC)cc(/C=C/CO)cc3[C@H]2CO)ccc1O [DEHYDROCONIFERYL ALCOHOL]
[1]
  IC50: 54.6 µM
[3]
  Activity: 8.2%
[4]
  Activity: Active
[5]
  Activity: 0.74%
[6]
  Activity: Active
[7]
  Activity: 2.5%
[8]
  Activity: 70.1%
[9]
  Activity: Active
[10]
  viability at 50 µM: 94.4%
[11]
  Activity: Active
[12]
  Activity: inactive
[2]
  IC50: 104 µM
[13]
  Activity: 16.8%
[14]
  Activity: 2.37%
[15]
  Activity: 1.14%
[16]
  Activity: 3.76%

## COc1cc(C2Oc3c(OC)cc(/C=C/C=O)cc3C2CO)ccc1O (racemic)
[1]
  IC50: 29.3 µM
[2]
  IC50: 36.5 µM
